Test results from the supplement of paper PMC10307832.

Tests used:
Test in all cases: relative viability (nuclei count vs DMSO), 5 days (fraction); higher = more cells survive
NCI-H2126 = test system: NCI-H2126
Outline: (§1)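 Dosing by pin tool came one day after lung cancer cell lines were seeded in 1536-well plates, using either one drug or a fixed anchor-drug dose plus five library-drug doses (not always all listed) in √10 steps. After 5 days, nuclei were counted on 4× images. Relative viability is treated-well nuclei count divided by vehicle-well nuclei count, and values are medians of duplicate plates.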

HCC-827 = test system: HCC-827
Outline: as §1

NCI-H1650 = test system: NCI-H1650
Outline: as §1

LK-2 = test system: LK-2
Outline: as §1

COR-L23 = test system: COR-L23
Outline: as §1

EKVX = test system: EKVX
Outline: as §1

NCI-H2087 = test system: NCI-H2087
Outline: as §1

BEN = test system: BEN
Outline: as §1

EMC-BAC-2 = test system: EMC-BAC-2
Outline: as §1

NCI-H1915 = test system: NCI-H1915
Outline: as §1

EPLC-272H = test system: EPLC-272H
Outline: as §1

NCI-H1793 = test system: NCI-H1793
Outline: as §1

LCLC-103H = test system: LCLC-103H
Outline: as §1

HCC-44 = test system: HCC-44
Outline: as §1

NCI-H2347 = test system: NCI-H2347
Outline: as §1

LXF-289 = test system: LXF-289
Outline: as §1

A-427 = test system: A-427
Outline: as §1

SW 1573 = test system: SW 1573
Outline: as §1

NCI-H1651 = test system: NCI-H1651
Outline: as §1

201T = test system: 201T
Outline: as §1

NCI-H358 = test system: NCI-H358
Outline: as §1

NCI-H460 = test system: NCI-H460
Outline: as §1

## Cc1cnc(-c2cnc(NCCNc3ccc(C#N)cn3)nc2-c2ccc(Cl)cc2Cl)[nH]1 + CC(=O)c1c(C)c2cnc(Nc3ccc(N4CCNCC4)cn3)nc2n(C2CCCC2)c1=O [Palbociclib] (partner 0.5 µM)
NCI-H2126; first compound 0.08 µM
  relative viability: 0.369
NCI-H2126; first compound 0.253 µM
  relative viability: 0.355
NCI-H2126; first compound 0.8 µM
  relative viability: 0.331
NCI-H2126; first compound 2.53 µM
  relative viability: 0.341
HCC-827; first compound 0.08 µM
  relative viability: 0.48
HCC-827; first compound 0.253 µM
  relative viability: 0.371
HCC-827; first compound 0.8 µM
  relative viability: 0.484
HCC-827; first compound 2.53 µM
  relative viability: 0.387
NCI-H1650; first compound 0.08 µM
  relative viability: 0.368
NCI-H1650; first compound 0.253 µM
  relative viability: 0.306
NCI-H1650; first compound 0.8 µM
  relative viability: 0.306
NCI-H1650; first compound 2.53 µM
  relative viability: 0.258
LK-2; first compound 0.08 µM
  relative viability: 0.754
LK-2; first compound 0.253 µM
  relative viability: 0.645
LK-2; first compound 2.53 µM
  relative viability: 0.583
COR-L23; first compound 0.08 µM
  relative viability: 0.328
COR-L23; first compound 0.253 µM
  relative viability: 0.266
COR-L23; first compound 0.8 µM
  relative viability: 0.272
COR-L23; first compound 2.53 µM
  relative viability: 0.264
EKVX; first compound 0.08 µM
  relative viability: 0.493
EKVX; first compound 0.253 µM
  relative viability: 0.316
EKVX; first compound 0.8 µM
  relative viability: 0.417
EKVX; first compound 2.53 µM
  relative viability: 0.444
NCI-H2087; first compound 0.08 µM
  relative viability: 0.235
NCI-H2087; first compound 0.8 µM
  relative viability: 0.227
NCI-H2087; first compound 2.53 µM
  relative viability: 0.146
BEN; first compound 0.08 µM
  relative viability: 0.495
BEN; first compound 0.253 µM
  relative viability: 0.506
BEN; first compound 0.8 µM
  relative viability: 0.687
BEN; first compound 2.53 µM
  relative viability: 0.545
EMC-BAC-2; first compound 0.08 µM
  relative viability: 0.544
EMC-BAC-2; first compound 0.253 µM
  relative viability: 0.523
EMC-BAC-2; first compound 0.8 µM
  relative viability: 0.543
EMC-BAC-2; first compound 2.53 µM
  relative viability: 0.512
NCI-H1915; first compound 0.08 µM
  relative viability: 0.547
NCI-H1915; first compound 0.8 µM
  relative viability: 0.571
NCI-H1915; first compound 2.53 µM
  relative viability: 0.601
EPLC-272H; first compound 0.08 µM
  relative viability: 0.345
EPLC-272H; first compound 0.253 µM
  relative viability: 0.323
EPLC-272H; first compound 0.8 µM
  relative viability: 0.309
EPLC-272H; first compound 2.53 µM
  relative viability: 0.373
NCI-H1793; first compound 0.08 µM
  relative viability: 0.336
NCI-H1793; first compound 0.253 µM
  relative viability: 0.288
NCI-H1793; first compound 0.8 µM
  relative viability: 0.282
NCI-H1793; first compound 2.53 µM
  relative viability: 0.386
LCLC-103H; first compound 0.08 µM
  relative viability: 0.516
LCLC-103H; first compound 0.253 µM
  relative viability: 0.475
LCLC-103H; first compound 0.8 µM
  relative viability: 0.426
LCLC-103H; first compound 2.53 µM
  relative viability: 0.507
HCC-44; first compound 0.08 µM
  relative viability: 0.957
HCC-44; first compound 0.253 µM
  relative viability: 0.931
HCC-44; first compound 0.8 µM
  relative viability: 0.97
HCC-44; first compound 2.53 µM
  relative viability: 0.985
NCI-H2347; first compound 0.08 µM
  relative viability: 0.411
NCI-H2347; first compound 0.253 µM
  relative viability: 0.406
NCI-H2347; first compound 0.8 µM
  relative viability: 0.438
NCI-H2347; first compound 2.53 µM
  relative viability: 0.493
LXF-289; first compound 0.08 µM
  relative viability: 0.66
LXF-289; first compound 0.253 µM
  relative viability: 0.565
LXF-289; first compound 0.8 µM
  relative viability: 0.571
LXF-289; first compound 2.53 µM
  relative viability: 0.682
A-427; first compound 0.08 µM
  relative viability: 0.537
A-427; first compound 0.253 µM
  relative viability: 0.539
A-427; first compound 0.8 µM
  relative viability: 0.567
A-427; first compound 2.53 µM
  relative viability: 0.563
SW 1573; first compound 0.08 µM
  relative viability: 0.387
SW 1573; first compound 0.253 µM
  relative viability: 0.336
SW 1573; first compound 0.8 µM
  relative viability: 0.368
SW 1573; first compound 2.53 µM
  relative viability: 0.146
NCI-H1651; first compound 0.08 µM
  relative viability: 0.58
NCI-H1651; first compound 0.253 µM
  relative viability: 0.468
NCI-H1651; first compound 0.8 µM
  relative viability: 0.504
NCI-H1651; first compound 2.53 µM
  relative viability: 0.549
201T; first compound 0.08 µM
  relative viability: 0.384
201T; first compound 0.8 µM
  relative viability: 0.362
201T; first compound 2.53 µM
  relative viability: 0.38
NCI-H358; first compound 0.08 µM
  relative viability: 0.13
NCI-H358; first compound 0.253 µM
  relative viability: 0.14
NCI-H358; first compound 0.8 µM
  relative viability: 0.134
NCI-H358; first compound 2.53 µM
  relative viability: 0.143
NCI-H460; first compound 0.08 µM
  relative viability: 0.154
NCI-H460; first compound 0.253 µM
  relative viability: 0.0849
NCI-H460; first compound 0.8 µM
  relative viability: 0.135
NCI-H460; first compound 2.53 µM
  relative viability: 0.146
